Assay results from patent publication US10238630B2, “Use of eribulin and poly (ADP ribose) polymerase (PARP) inhibitors as combination therapy for the treatment of cancer” (Eisai R&D Management Co., Ltd., priority 2014, dated 2019).
“Also recorded” adds a separate entry of the source. Structures can show the parent of a compound that is named as a salt.

How the values were obtained:
BR1282 = test: Antitumor effect in patient-derived xenograft (PDx) BR1282 of triple negative breast cancer in athymic mice; format: in vivo, human
[1] = system: MDA-MB-436 human breast cancer xenografts; test: Antitumor activity against subcutaneous MDA-MB-436 human breast cancer xenografts in SCID mice (three studies); format: in vivo
Protocol: MDA-MB-436 human triple negative breast cancer cells are BRCA1 mutant and PTEN null. Cells were maintained in monolayer cultures in RPMI-1640 growth medium supplemented with 10% fetal bovine serum at 37° C. in a 5% CO2 humidified incubator. On the day of inoculation, cells were harvested by trypsinization, washed, and resuspended in ice-cold PBS. Female immunodeficient SCID mice were inoculated subcutaneously near the right axillary area with MDA-MB-436 cells (5×10^6) in a 1:1 ratio (50 μL each) with Matrigel™ in a volume of 0.1 mL in phosphate buffered saline, using a 26-gauge needle. A total of 125 mice, approximately 6 weeks old were implanted with MDA-MB-436 cells.
E7449, carboplatin and E7389 were evaluated as single agents and in combination for antitumor activity against MDA-MB-436 human breast cancer xenografts in SCID mice. Three separate studies were performed. The first experiment consisted of a vehicle control group, an E7449 single agent group, two groups treated with single agent E7389 and 2 combination drug-treated groups (Table 1). Thirty mice were inoculated with MDA-MB-436 cells and on Day 58 following implantation, tumor volumes were measured and mice were randomized into the 6 treatment groups based on tumor volume (average of 300 mm^3). Following randomization, drug treatment was initiated. Groups A to D were composed of 5 mice and groups E and F consisted of 4 mice for a total of 28 mice on the first day of treatment. E7449 was formulated in 0.5% methyl cellulose and orally administered once daily for 28 days (starting on Day 58) at 60 mg/kg based on body weight at 0.1 mL per 10 g. E7389 was formulated in saline and was intravenously administered once every 4 days, 4 times (Day 58, 62, 66, and 70) at a dosage of 0.4 or 1.6 mg/kg as single agent or in combination with E7449, based on body weight at 0.1 mL per 10 g. The control group was treated with oral vehicle (0.5% methyl cellulose in water) daily and intravenous vehicle (saline) once every 4 days, 4 times. E7449 or vehicle was administered first and when dosing of all animals was complete, E7389 was administered to animals receiving the combination.
The second experiment consisted of a vehicle control group, an E7449 single agent group, 2 groups treated with single agent carboplatin, and 2 combination drug-treated groups (Table 2). Thirty-five mice were inoculated with MDA-MB-436 cells and on Day 57, following implantation, tumor volumes were measured and mice were randomized into 6 treatment groups based on tumor volume (average of 250 mm^3). Following randomization drug treatment was initiated. Groups A to D were composed of 5 mice and groups E and F consisted of 6 mice for a total of 32 mice on the first day of treatment. E7449, formulated in 0.5% methyl cellulose was orally administered daily for 28 days (starting on Day 57), at 60 mg/kg based on body weight at 0.1 mL per 10 g. Carboplatin was formulated in saline and was intravenously administered once on the first day of treatment (Day 57) at a dosage of 15 or 60 mg/kg as a single agent or in combination with E7449 based on body weight at 0.1 mL per 10 g. The control group was treated with oral vehicle (0.5% methyl cellulose in water) daily and intravenous vehicle (saline) once on Day 57. E7449 or vehicle was administered first, and when dosing of all animals was complete carboplatin was administered to animals receiving the combination.
The third experiment consisted of a vehicle control group, 3 groups treated with single agent E7449, E7389, or carboplatin, 3 groups treated with double combinations of E7449+E7389, E7449+carboplatin, and E7389+carboplatin and a group treated with the three-drug combination (Table 3). Sixty mice were inoculated with MDA-MB-436 cells and on Day 41 following implantation, tumor volumes were measured and mice were randomized into 8 treatment groups based on tumor volume (average of 250 mm^3). Following randomization drug treatment was initiated.

[2] = system: HCC1806 human breast cancer xenografts; test: Antitumor activity against subcutaneous HCC1806 human breast cancer xenografts in athymic mice; format: in vivo
Protocol: HCC1806 human triple negative breast cancer cells, wild type for BRCA and PTEN, were maintained in monolayer cultures in RPMI-1640 growth medium supplemented with 10% fetal bovine serum at 37° C. in a 5% CO2 humidified incubator. On the day of inoculation, cells were harvested by trypsinization, washed, and resuspended in ice-cold PBS. Female immunodeficient athymic mice were inoculated subcutaneously near the right axillary area using a 26-gauge needle with HCC1806 cells (2.5×10^6) in a 0.1 mL volume. A total of 60 mice, approximately 6 weeks old were implanted with cells.
E7449 and E7389 were evaluated as single agents and in combination for anti-tumor activity against HCC1806 human breast cancer xenografts in athymic mice. The experiment consisted of a vehicle-treated control group, an E7449 single agent-treated group, two groups treated with single agent E7389 and 2 combination drug-treated groups (Table 7). Each group was composed of 8 mice for a total of 48 mice on the first day of treatment. Sixty mice were inoculated with HCC1806 cells and on day 5 following implantation, tumor volumes were measured and mice were randomized into the 6 treatment groups based on tumor volume (average of 150 mm^3). Following randomization drug treatment was initiated (Day 5). E7449 was formulated in 0.5% methyl cellulose and orally administrated daily at 100 mg/kg based on body weight at 0.1 mL per 10 g. E7449 was administered once daily for 28 days (starting on Day 5) as a single agent or in combination with E7389. E7389 was formulated in saline and was administered intravenously once every 4 days 4 times (Day 5, 9, 13, and 17) at a dosage of 0.1 or 0.4 mg/kg as single agent or in combination with E7449, based on body weight at 0.1 mL per 10 g. The control group was treated with oral vehicle (0.5% methyl cellulose in water) daily and intravenous vehicle (saline) once every 4 days, 4 times. E7449 or vehicle was administered first and when dosing of all animals was complete E7389 was administered to animals receiving the combination.
Tumor dimensions were recorded twice per week starting at the initiation of drug treatment. […] The data generated consist of group mean tumor volumes and group mean body weights at each measurement.
Drug treatment was initiated following randomization on Day 5 (5 days post tumor implantation) and continued for 28 days. Animals whose tumor measurement reached ≥2 cm at the longest axis were euthanized prior to study termination. The study was terminated on Day 38. Statistical analysis was performed on Day 20.
Statistical analysis of the vehicle group (A) versus all drug treatment groups (B, C, D, E and F) was performed by a one way analysis of variance (ANOVA) for tumor volume followed by Dunnett's multiple comparison test. […]

| SMILES | antitumor effect (tumor growth) (BR1282; E7389 0.3 mg/kg, single agent) | antitumor effect (tumor growth) (BR1282; E7389 single agent, 0.1 mg/kg (dose as read from the sentence)) | antitumor effect (tumor volume) ([1]; E7449+E7389 study, E7389 0.4 mg/kg IV Q4Dx4, single agent) | antitumor effect (tumor volume) ([1]; E7449+E7389 study, E7389 1.6 mg/kg IV Q4Dx4, single agent) | antitumor effect (tumor volume), dose dependence ([1]; E7449+E7389 study, E7389 0.4 and 1.6 mg/kg IV Q4Dx4, single agent) | antitumor effect (tumor volume) ([1]; triple combination study, E7389 0.2 mg/kg IV Q4Dx4, single agent, 0.2 mg/kg) | antitumor effect (tumor volume) ([2]; E7389 0.1 mg/kg IV Q4Dx4, single agent) | antitumor effect (tumor volume) ([2]; E7389 0.4 mg/kg IV Q4Dx4, single agent) | antitumor effect (tumor volume), dose dependence ([2]; E7389 0.1 and 0.4 mg/kg IV Q4Dx4, single agent) | antitumor effect (tumor growth) (BR1282; E7449 single agent) | antitumor effect (tumor volume) ([1]; E7449+E7389 study, E7449 60 mg/kg PO QDx28, single agent) | antitumor effect (tumor volume) ([1]; E7449+carboplatin study, E7449 60 mg/kg PO QDx28, single agent) | antitumor effect (tumor volume) ([1]; triple combination study, E7449 60 mg/kg PO QDx28, single agent) | antitumor effect (tumor volume) ([2]; E7449 100 mg/kg PO QDx28, single agent, 100 mg/kg) |
| --- | --- | --- | --- | --- | --- | --- | --- | --- | --- | --- | --- | --- | --- | --- |
| C=C1C[C@@H]2CC[C@@]34C[C@H]5OC6[C@@H](O[C@H]7CC[C@H](CC(=O)C[C@@H]8[C@@H](OC)[C@@H](C[C@H](O)CN)O[C@H]8C[C@H]8O[C@@H](CC[C@@H]1O2)C[C@@H](C)C8=C)O[C@@H]7[C@@H]6O3)[C@H]5O4 [E7389, 11, 15:18,21:24,28-triepoxy-7,9-ethano-12,15-methano-9H,15H-furo[3,2-i]furo[2′,3′:5,6]pyrano[4,3-b] [1,4]dioxacyclopentacosin-5(4H)-one, 2-[(2S)-3-amino-2-hydroxypropyl]hexacosahydro-3-methoxy-26-methyl-20,27-bis(methylene)-, (2R,3R,3aS,7R,8aS,9S,10aR,11S,12R,13aR,13bS,15S,18S,21S,24S,26R,28R,29aS)-methanesulfonate (salt)] | inhibited tumor growth to a similar degree | had no impact on the tumor growth | modest antitumor effect | tumor regression | Dose dependent antitumor activity | did not significantly inhibit tumor growth | tumor growth inhibition | tumor regression | Dose-dependent antitumor activity | – | – | – | – | – |
| O=c1[nH]nc2c3c(cccc13)N=C(CN1Cc3ccccc3C1)N2 [E7449] | – | – | – | – | – | – | – | – | – | had no impact on the tumor growth | modest and statistically significant tumor growth inhibition | modest and statistically significant tumor growth inhibition | statistically significant tumor growth inhibition | no effect on tumor growth; also recorded: No antitumor activity |
